Active and inactive are the calls of the source. The calls are words filed in the database; no cut-off is given here. Numbered stars: 1 amine (or outer) side, 2 acyl side, 3 side chain; on linkers, the order of the positions; unused ones are H or OH. Square brackets hold non-standard residues; d marks the D form. Peptide text beside a SMILES is read from it. azaTyr = O=C(N(Cc1ccc(O)cc1)N[*:1])[*:2]
What was measured:
RAW264.7 [1] = assay: Inhibition of R-FSL-1-induced CCL2 production in mouse RAW264.7 cells at 10 uM pre-incubated for 30 mins before R-FSL-1 stimulation for 4 hrs by ELISA; format: functional, cell-based
RAW264.7 [2] = assay: Inhibition of R-FSL-1-induced TNFalpha production in mouse RAW264.7 cells at 10 uM pre-incubated for 30 mins before R-FSL-1 stimulation for 4 hrs by ELISA; format: functional, cell-based
Mus musculus [3] = assay: Anti-atherosclerotic activity in atherogenic diet fed apoE-/- mouse assessed as reduction in aortic lesions at 300 nmol/kg, sc dosed daily for 8 weeks from 12 weeks of age relative to control; format: functional
RAW264.7 [4] = assay: Inhibition of R-FSL-1-induced nitric oxide production in mouse RAW264.7 cells at 10 uM pre-incubated for 1 hr before R-FSL-1 stimulation by fluorescence based assay relative to control; format: functional
Platelet glycoprotein 4 = Platelet glycoprotein 4 (Rattus norvegicus, UniProt Q07969); assay: Displacement of [125]-Tyr-Bpa-Ala-Hexarelin from CD36 in Sprague-Dawley rat heart membranes incubated for 60 mins; format: cell membranes
Chain of Platelet glycoprotein 4 (Q07969 whole entry): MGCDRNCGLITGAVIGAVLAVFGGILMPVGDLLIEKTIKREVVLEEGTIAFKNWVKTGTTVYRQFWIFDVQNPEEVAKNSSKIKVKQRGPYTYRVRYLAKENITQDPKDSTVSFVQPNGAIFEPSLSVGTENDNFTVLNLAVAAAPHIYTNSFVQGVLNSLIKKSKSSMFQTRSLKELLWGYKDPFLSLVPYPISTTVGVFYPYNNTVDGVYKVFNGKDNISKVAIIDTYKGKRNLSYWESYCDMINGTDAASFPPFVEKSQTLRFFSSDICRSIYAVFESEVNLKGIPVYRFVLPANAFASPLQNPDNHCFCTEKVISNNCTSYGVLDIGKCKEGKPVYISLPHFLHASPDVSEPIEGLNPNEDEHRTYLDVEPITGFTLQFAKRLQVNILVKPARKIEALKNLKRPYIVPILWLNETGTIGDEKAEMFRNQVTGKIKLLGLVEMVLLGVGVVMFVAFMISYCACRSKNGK

Mus musculus [5] = assay: Protection against photoreceptor degeneration in mouse model of intense blue light-induced dry age related macular degeneration assessed as improvement of retinal function by measuring increase in a-wave and b-wave amplitudes at 289 nmol/kg, sc starting one day after start of blue-light exposure for 7 consecutive days by electroretinography analysis; format: functional, organism-based
BMDM [6] = assay: Inhibition of R-FSL-1-induced IL-1beta production in C57BL/6 mouse BMDM at 10 pM to 1 uM pre-incubated for 30 mins before R-FSL-1 stimulation for 4 hrs by ELISA; format: functional, cell-based
Mus musculus [7] = assay: Protection against photoreceptor degeneration in mouse model of intense blue light-induced dry age related macular degeneration assessed as reduction in subretinal inflammation by measuring reduction in IL-1p-expressing immune cell infiltration in retina at 289 nmol/kg, sc starting one day after start of blue-light exposure for 7 consecutive days; format: functional, organism-based
BMDM [8] = assay: Inhibition of R-FSL-1-induced TNFalpha production in C57BL/6 mouse BMDM at 10 pM to 1 uM pre-incubated for 30 mins before R-FSL-1 stimulation for 4 hrs by ELISA; format: functional, cell-based
Mus musculus [9] = assay: Protection against photoreceptor degeneration in mouse model of intense blue light-induced dry age related macular degeneration assessed as preservation of ONL thickness at 289 nmol/kg, sc starting one day after start of blue-light exposure for 7 consecutive days; format: functional, organism-based

| SMILES | inhibition (RAW264.7 [1]) | inhibition (RAW264.7 [2]) | inhibition (RAW264.7 [4]) | also measured |
| --- | --- | --- | --- | --- |
| C=CCN1CC#CCN(NC(C)=O)C(=O)N[C@H](Cc2c[nH]c3ccccc23)C(=O)N[C@@H](C)C(=O)N[C@@H](Cc2c[nH]c3ccccc23)C(=O)N[C@H](Cc2ccccc2)C(=O)N[C@H](C(N)=O)CCCC1 | Active | Active |  | inhibition (Mus musculus [3]): Active; inhibition at 10 µM (RAW264.7 [4]): 80% |
| C=CCN1CC#CC[C@H](NC(=O)[C@H](C)N)C(=O)N[C@@H](C)C(=O)N[C@@H](Cc2c[nH]c3ccccc23)C(=O)N[C@H](Cc2ccccc2)C(=O)N[C@H](C(N)=O)CCCC1 |  |  | Active |  |
| C=CCN1CC#CCN(NC(=O)[C@H](C)N)C(=O)N[C@H](Cc2c[nH]c3ccccc23)C(=O)N[C@@H](C)C(=O)N[C@H](C(=O)N[C@H](Cc2ccccc2)C(=O)N[C@@H](CCCCN)C(N)=O)CCCC1 |  |  | Active |  |
| CCCN1CC#CCN(NC(=O)CN)C(=O)N[C@H](Cc2c[nH]c3ccccc23)C(=O)N[C@@H](C)C(=O)N[C@@H](Cc2c[nH]c3ccccc23)C(=O)N[C@H](Cc2ccccc2)C(=O)N[C@H](C(N)=O)CCCC1 |  |  | Active | IC50 (Platelet glycoprotein 4): 1490 nM |
| C=CCN1CC#CCN(NC(=O)[C@H](C)N)C(=O)N[C@@H](C)C(=O)N[C@@H](Cc2c[nH]c3ccccc23)C(=O)N[C@H](Cc2ccccc2)C(=O)N[C@H](C(N)=O)CCCC1 | Active | Active | Active |  |
| C=CCN1CC#CCN(NC(=O)[C@@H](Cc2c[nH]c3ccccc23)NC(=O)[C@@H](N)Cc2cnc[nH]2)C(=O)N[C@@H](Cc2c[nH]c3ccccc23)C(=O)N[C@H](Cc2ccccc2)C(=O)N[C@H](C(N)=O)CCCC1 | Active | Active | Active |  |
| C=CCN1CC#CCN(NC(=O)[C@@H](C)N)C(=O)N[C@H](Cc2c[nH]c3ccccc23)C(=O)N[C@@H](C)C(=O)NN(Cc2ccc(OC)cc2)C(=O)N[C@H](Cc2ccccc2)C(=O)N[C@H](C(N)=O)CCCC1 |  |  | Active |  |
| C[C@H](NC(=O)[C@@H](Cc1c[nH]c2ccccc12)NC(=O)[C@@H](N)Cc1cnc[nH]1)C(=O)NN(Cc1ccc(O)cc1)C(=O)N[C@H](Cc1ccccc1)C(=O)N[C@@H](CCCCN)C(N)=O (H-H[dW]A[azaTyr][dF]K-NH2) | Active | Active |  | inhibition (Mus musculus [3]): Active |
| CN1CC#CCN(NC(=O)[C@@H](Cc2c[nH]c3ccccc23)NC(=O)[C@@H](N)Cc2cnc[nH]2)C(=O)N[C@@H](Cc2c[nH]c3ccccc23)C(=O)N[C@H](Cc2ccccc2)C(=O)N[C@H](C(N)=O)CCCC1 | inactive | inactive |  |  |
| C=CCN1CC#CCN(NC(=O)[C@H](C)NC(C)=O)C(=O)N[C@H](Cc2c[nH]c3ccccc23)C(=O)N[C@@H](C)C(=O)N[C@@H](Cc2c[nH]c3ccccc23)C(=O)N[C@H](Cc2ccccc2)C(=O)N[C@H](C(N)=O)CCCC1 | Active | Active |  | inhibition (Mus musculus [3]): Active; inhibition at 10 µM (RAW264.7 [4]): 80% |
| C=CCN1CC#CCN(NC(=O)[C@H](C)N)C(=O)N[C@H](Cc2c[nH]c3ccccc23)C(=O)N[C@@H](C)C(=O)N[C@@H](Cc2c[nH]c3ccccc23)C(=O)N[C@H](Cc2ccccc2)C(=O)N[C@H](C(N)=O)CCCC1 | Active | Active | Active | Activity (Mus musculus [5]): Active; inhibition (BMDM [6]): Active; Activity (Mus musculus [7]): Active; inhibition (BMDM [8]): Active; Activity (Mus musculus [9]): Active |
| C=CCN1CC#CC[C@H](NC(=O)[C@H](C)N)C(=O)N[C@H](Cc2c[nH]c3ccccc23)C(=O)N[C@@H](C)C(=O)N[C@@H](Cc2c[nH]c3ccccc23)C(=O)N[C@H](Cc2ccccc2)C(=O)N[C@H](C(N)=O)CCCC1 |  |  | Active |  |
| C[C@@H]1NC(=O)[C@@H](Cc2c[nH]c3ccccc23)NC(=O)N(NC(=O)CN)CC#CCN(CC2CC2)CCCC[C@@H](C(N)=O)NC(=O)[C@@H](Cc2ccccc2)NC(=O)[C@H](Cc2c[nH]c3ccccc23)NC1=O |  |  | Active | IC50 (Platelet glycoprotein 4): 980 nM |
| C=CCN1CC#CCN(NC(=O)CN)C(=O)N[C@H](Cc2c[nH]c3ccccc23)C(=O)N[C@@H](C)C(=O)N[C@@H](Cc2c[nH]c3ccccc23)C(=O)N[C@H](Cc2ccccc2)C(=O)N[C@H](C(N)=O)CCCC1 |  |  |  | IC50 (Platelet glycoprotein 4): 12900 nM |
| C=CCN1CC#CCN(N)C(=O)N[C@H](Cc2c[nH]c3ccccc23)C(=O)N[C@@H](C)C(=O)N[C@@H](Cc2c[nH]c3ccccc23)C(=O)N[C@H](Cc2ccccc2)C(=O)N[C@H](C(N)=O)CCCC1 | inactive | inactive |  | inhibition (Mus musculus [3]): Active; inhibition at 10 µM (RAW264.7 [4]): 80% |
